From publication PMC4887910, “A synthetic kisspeptin analog that triggers ovulation and advances puberty” (Scientific Reports, 2016)
“Also recorded” adds a separate entry of the source. Read-outs that look alike come from different tables or passages of the source. Starred links: 1 amine or outer side, 2 acyl side, 3 side chain; linkers in the order of their positions; H or OH if unused. Non-standard residues stand in square brackets, D forms with d. Residues, ends and D or L forms follow the SMILES beside them. No end group written: not given here. *: point of attachment. Glyψ(1,4-Tz)Leu = CC(C)C[C@@H](C(=O)[*:2])n1cc(CN[*:1])nn1; γGlu = O=C(O)[C@H](CCC(=O)[*:2])N[*:1]; Arg(Me) = CNC(=N)NCCC[C@H](N)C(=O)O; Palmitoyl = CCCCCCCCCCCCCCCC(=O)*

Assays:
hKiSS1R = target: T1, hKiSS1R (Homo sapiens, UniProt Q969F8); assay: intracellular Ca2+ mobilization assay (Fluo4 NW) in KiSS1R-transfected HEK293A cells; format: cell-based; settings: for EC50: SEM
T1 construct: expressed in transfected cells; host or cells: HEK293A
Source text: Figure 1 Chemical structures and half maximal effective concentration (mean ± SEM, N = 3) of kisspeptin 10 and analogs C2–C7 as measured in a calcium mobilization assay in KiSS1R-transfected HEK293 cell line. Ac: acetyl; Palm-γ-Glu: N-palmitoylated-γ-glutamate, Tz: Triazole; Me: Methyl. TEXT PRINTED IN THE PICTURE: Kp10 1: EC50 (nM): 2.6 ± 2.2 | 2: EC50 (nM): 0.07 ± 0.06 | 3: EC50 (nM): 1.6 ± 0.2 | 4: EC50 (nM): 216 ± 110 | 5: EC50 (nM): 0.22 ± 0.33 | 6: EC50 (nM): 0.33 ± 0.24 | 7: EC50 (nM): 0.04 ± 0.02
Receptor activation was monitored using Fluo4 NW Ca^2+ assay kit in HEK293A cells transfected with the hKiSS1R as previously described[11] (kind gift of professor N. de Roux, INSERM U690, Hôpital Robert Debré, Paris, France). Considering the type of analysis performed, assessment of second messenger activation of a heterologous expressed receptor, the use of potentially misidentified cells has no impact on the result. Basal fluorescence was measured with a plate reader (PolarStar Optima, BMG Labtech). Immediately after the basal reading, the test compound was added at different concentrations and the intracellular Ca^2+ dynamic monitored. To generate concentration activity curves, the mean basal value was subtracted from the value obtained after stimulation. The area under the curve (AUC) was calculated and plotted against concentrations. Concentration activity data points were fitted to sigmoidal curves generated by GraphPad Prism 5 and EC50 automatically calculated.

ewes [1] = assay: LH surge / ovulation induction in ewes injected 24 h after flugestone acetate withdrawal (LH, FSH, progesterone); format: in vivo, ewe (Ile de France); settings: 15 nmol/ewe im
Method: (§1) To induce an artificial luteal phase intact cyclic (October–December) or anestrus acyclic (March–June) ewes were implanted with vaginal sponge containing FA (Chronogest, Intervet), a progesterone analog, for 14 days. To compare the activity of Kp, C3, C5 and C6 injection of test drug was performed during the treatment with FA. For the experiments of synchronization and induction of ovulation 24 hours before drug injection the vaginal sponge was removed and the same day a catheter (ID 1.0, L 52 mm, Intraflon 2, Vygon, France) was inserted in the jugular vein. On the day of experiment the test compound was injected intramuscularly and blood samples (2 mL) were taken at various time intervals post-injection: every10 minutes for the first hour, every 20 minutes from 2 to 6 hours, every 60 minutes from 6 to 10 hours and every 120 minutes from 10 hours to the end of the experiment). Data are expressed as means ± SEM (N = 6–12 per group, for details on group size see figure legends).
Plasma LH concentrations in ewe were measured using previously described radioimmunoassays. […] Plasma FSH levels were measured using the reagents supplied by Tucker Endocrine Research Institute (Atlanta, Georgia, USA). […]
Progesterone was measured by an ELISA assay on 96-well plate (Immuno Nunc Maxisorp C96) coated with goat anti-mouse IgG (Uptima UP462140, Interchim) overnight at 4 °C. […]

ewes [2] = assay: LH plasma concentration in ewes during artificial luteal phase (under flugestone acetate), intramuscular injection; format: in vivo, ewe (Ile de France); settings: 15 nmol/ewe im, breeding season, ewes under FA treatment, N = 6
Method: as §1
Plasma LH concentrations in ewe were measured using previously described radioimmunoassays. The assay standard was 1055-CY-LH (equivalent to 2.2 NIH-LH-S1). Intra-assay coefficient of variation averaged 9% and assay sensitivity was 0.2 ± 0.05 ng/mL. Plasma FSH levels were measured using the reagents supplied by Tucker Endocrine Research Institute (Atlanta, Georgia, USA). […]

KiSS1R KO mice = assay: circulating LH concentration in KiSS1R KO mice; format: in vivo, mouse
Method: Adult male and female KiSS1R KO mice[41] were primed by 5 ip injections of 40 ng/100 μL GnRH at 30 minute intervals and an equivalent volume of saline was injected to wild type mice. This protocol allows the pituitary gland to become more responsive to GnRH in this mouse line as previously reported. Blood samples (4 μL) were collected from the tail tip as previously described, before the first, third and fifth injection, and 30, 105 and 125 minutes after the last injection. C6 was injected immediately after the last blood sampling (0.3 nmoles/200 μL, a dose established in a preliminary experiment) and blood samples taken 20, 40, 60, 90, 120, 180, 300 minutes following injection. After 300 minutes a further injection of GnRH (40 ng/100 μL) was performed in KiSS1R KO mice, and a final blood sample was taken 30 minutes later to confirm the functionality of the HPG axis. Whole blood samples were collected in 150 μL of 0.1 M PBS-0.05% Tween20, mixed and moved to dry ice at the end of each sampling round. Experiments were conducted during the first 8 hours of the light phase to avoid any endogenous LH surges associated with the preovulatory stage of the female reproductive cycle. Data are expressed as means ± SEM (N = 4–7 per group, for details on group size see figure legends).
A sandwich ELISA, adapted from Steyn et al.[42], was used to measure LH concentration in mice. Monoclonal bovine LHβ 518 B7 (1:1,000 dilution) was used as the capture antibody (obtained from Lillian Sibley at University of California Davis), and the standard was NIDDK mouse LH reference preparation from AF Parlow (AFP5306A mouse RIA kit). The assay sensitivity was 0.2 ng/mL and the mean intra-assay coefficient of variation averaged 11%.

[3] = KiSS1R-transfected HEK293 cell line, Fluo4 NW, AUC fitted, mean ± SEM, N = 3, read-out: EC50, calcium mobilization
[4] = 40 ng GnRH 300 min after C6, sample 30 min later
[5] = 5 ip injections of 40 ng GnRH at 30 min intervals, 15 minutes post injection

T1 sequence (Q969F8 whole entry): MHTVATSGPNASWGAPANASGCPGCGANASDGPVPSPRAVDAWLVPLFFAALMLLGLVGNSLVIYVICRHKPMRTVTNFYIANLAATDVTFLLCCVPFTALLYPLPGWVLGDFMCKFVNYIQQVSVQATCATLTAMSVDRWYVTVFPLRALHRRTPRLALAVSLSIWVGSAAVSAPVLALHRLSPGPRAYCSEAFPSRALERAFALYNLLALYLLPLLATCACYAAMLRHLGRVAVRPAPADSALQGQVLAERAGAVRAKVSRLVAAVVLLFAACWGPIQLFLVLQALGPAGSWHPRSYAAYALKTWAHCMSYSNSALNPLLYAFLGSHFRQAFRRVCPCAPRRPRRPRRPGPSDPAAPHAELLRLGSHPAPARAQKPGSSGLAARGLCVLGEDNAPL

## CCCCCCCCCCCCCCCC(=O)N[C@@H](CCC(=O)N[C@@H](Cc1ccc(O)cc1)C(=O)N[C@@H](CC(N)=O)C(=O)N[C@@H](Cc1c[nH]c2ccccc12)C(=O)N[C@@H](CC(N)=O)C(=O)N[C@@H](CO)C(=O)N[C@@H](Cc1ccccc1)C(=O)NCc1cn([C@@H](CC(C)C)C(=O)N[C@@H](CCCNC(=N)N)C(=O)N[C@@H](Cc2ccc(O)cc2)C(N)=O)nn1)C(=O)O [C5] ({Palmitoyl-γGlu}-YNWNSF[Glyψ(1,4-Tz)Leu]RY-NH2)
hKiSS1R; [3]
  EC50: 0.22 ± 0.33 nM

## CCCCCCCCCCCCCCCC(=O)N[C@@H](CCC(=O)N[C@@H](Cc1ccc(O)cc1)C(=O)N[C@@H](CC(N)=O)C(=O)N[C@@H](Cc1c[nH]c2ccccc12)C(=O)N[C@@H](CC(N)=O)C(=O)N[C@@H](CO)C(=O)N[C@@H](Cc1ccccc1)C(=O)NCc1cn([C@@H](CC(C)C)C(=O)N[C@@H](CCCNC(=N)NC)C(=O)N[C@@H](Cc2ccc(O)cc2)C(N)=O)nn1)C(=O)O [C6] ({Palmitoyl-γGlu}-YNWNSF[Glyψ(1,4-Tz)Leu][Arg(Me)]Y-NH2)
hKiSS1R; C6 versus first generation analog C3
  enhancement in EC50 compared to C3: ~ 5 fold
hKiSS1R
  EC50: 0.33 ± 0.24 nM

## CNC(=N)NCCC[C@H](NC(=O)[C@H](CC(C)C)n1cc(CNC(=O)[C@H](Cc2ccccc2)NC(=O)[C@H](CO)NC(=O)[C@H](CC(N)=O)NC(=O)[C@H](Cc2c[nH]c3ccccc23)NC(=O)[C@H](CC(N)=O)NC(=O)[C@H](Cc2ccc(O)cc2)NC(C)=O)nn1)C(=O)N[C@@H](Cc1ccc(O)cc1)C(N)=O [C7] (Ac-YNWNSF[Glyψ(1,4-Tz)Leu][Arg(Me)]Y-NH2)
hKiSS1R; [3]
  EC50: 0.04 ± 0.02 nM

## YNWNSFGLRY-NH2 [Kp10]
Ewes [1]; 24 h after ending FA treatment, N = 6
  effect on LH plasma concentration, non-breeding season: no increase
Ewes [1]; non-breeding season, 1 ng mL^−1 threshold = ovulation hallmark
  progesterone level: < 1 ng/mL
hKiSS1R; [3]
  EC50: 2.6 ± 2.2 nM
Ewes [2]
  effect on LH plasma concentration: negligible effect; also recorded: no effect on LH basal level

## gonadotropin releasing hormone (QHWSYGLRPG; ends and bridges not checked; UniProt P13562 22-31, looked up) [GnRH, hormone injected ip to prime KiSS1R KO mice and check pituitary function]
KiSS1R KO mice; [4]
  LH after further GnRH injection at end of experiment, KO females: 4.8 ± 1.9 ng/mL
  LH after further GnRH injection at end of experiment, KO males: 3.2 ± 0.4 ng/mL
KiSS1R KO mice; [5]
  LH after GnRH priming, KO females: 2.3 ± 0.8 ng/mL
  LH after GnRH priming, KO males: 2.7 ± 0.6 ng/mL
KiSS1R KO mice; KiSS1R KO mice, 15 minutes post injection
  fold increase of circulating LH after GnRH priming: 3–6 fold
